Each structure is given as a SMILES string. Active and inactive are the calls of the source. How the calls were made is not given here.

The target of this assay is glucose-6-phosphate dehydrogenase-6-phosphogluconolactonase (Plasmodium falciparum 3D7). Kind of assay: PfG6PD inhibitor potency, dose response, biochemical, fluorescence intensity (AID 504765). Conditions: Recombinant PfG6PD enzyme, fluorescence intensity (NADPH).

`O=C(O)c1cccc(N2C(=O)C=CC2=O)c1`: the IC50 is 15.5 µM.

As for `Nc1c(C(=O)Nc2ccc(F)cc2)sc(=S)n1-c1ccccc1F`, the IC50 is 8.31 µM.

In the case of `Cn1c(=O)c2[nH]c(-c3ccccc3)c(O)c2n(C)c1=O`, the IC50 was 9.54 µM.

With `COc1cc(NCCCn2cnc(C(=O)Nc3ccc(C)c(C)c3)n2)cc(OC)c1OC`, the IC50 was > 80 µM (inactive).

As to `CN(C)c1ccc(Cc2cc3c(O)ccc(O)c3cc(Cc3ccc(N(C)C)cc3)c2=O)cc1`, the IC50 is 2.05 µM.

Turning to `CC1(C)CC2(CC(c3ccccc3F)c3ccc(O)c(O)c3O2)NC(=S)N1` (configuration not stated), the IC50 was 12.8 µM.

Consider `Cc1cc(C)c2sc(NC(=O)C3=COCCO3)nc2c1`, for which the IC50 was 11 µM.

Regarding `CCC(C)N(CCNC(=O)c1ccc2c(c1)NC(=O)c1ccccc1S2)C1CCCCC1` (configuration not stated), the IC50 is 6.48 µM.

Regarding `COc1ccc2ccccc2c1C1CC(=O)N2CN(C3CCCCC3)CSC2=C1C#N` (configuration not stated), the IC50 is 14.7 µM.

Regarding `CCc1cc(-c2n[nH]c(C)c2-c2nc3ccccc3n2C)c(O)cc1O`, the IC50 result was “inactive”.

In the case of `CCOc1ccc(S(=O)(=O)Nc2cc(SCC(=O)O)c(O)c3ccccc23)cc1`, the half-maximal inhibitory concentration (IC50) was 2.47 µM.

In the case of `COc1cccc(-c2c(C(=O)N/N=C/c3ccc(C)s3)nnn2-c2nonc2N)c1`, the IC50 is 6.69 µM.

`Cc1ccccc1OCC(=O)NCC(=O)OCC(=O)c1ccc([N+](=O)[O-])cc1`: the IC50 was 17.2 µM.

In the case of `O=c1c2ccccc2sn1-c1nccs1`, the IC50 is 1.69 µM.

For the molecule `O=C(CCc1ccc(O)c(O)c1)N/N=C/c1cc2c(cc1[N+](=O)[O-])OCO2`, the half-maximal inhibitory concentration (IC50) is 14 µM.

In the case of `CC1=CC(C)(C)Nc2ccc(OC(=O)CN3C(=O)c4cccc5cccc(c45)C3=O)cc21`, the IC50 was 6.28 µM.

As to `O=C(CBr)c1ccc([N+](=O)[O-])c(CS(=O)(=O)c2ccc(Cl)cc2)c1`, the IC50 is 10.5 µM.

With `O=C(O)c1ccccc1NS(=O)(=O)c1cccc(-n2sc3ccccc3c2=O)c1`, the IC50 is 5.54 µM.

With `Cc1cc(C)c2c(=O)n(CC(=O)Nc3ccc(Cl)cc3)sc2n1`, the IC50 was 2.51 µM.

With `O=C(COC(=O)c1cnccn1)c1ccc([N+](=O)[O-])cc1`, the IC50 was 12.2 µM.

For the molecule `CCn1c([N+](=O)[O-])nc2c1c(=O)[nH]c(=O)n2C`, the 50% inhibitory concentration (IC50) is 12.2 µM.

Consider `O=C(N/N=C/c1cccc([N+](=O)[O-])c1)C(=O)N1CCCCCC1`, for which the IC50 was 5.45 µM.

Consider `COc1ccc(NC(C)C(=O)N/N=C/c2cc(Br)ccc2OC)cc1` (configuration not stated), for which the IC50 was 8.77 µM.

In the case of `COc1ccc(OCc2nnc3n2N=C(c2ccccc2)C(CC(=O)O)S3)cc1` (configuration not stated), the IC50 result was “inactive”.

Regarding `COc1ccc(N=C2C(=S)N(c3ccc(OC)cc3)C(=NS(=O)(=O)c3ccccc3)N2c2ccccc2)cc1`, the IC50 is 2.38 µM.

Turning to `CCc1ccc(S(=O)(=O)Nc2cc(SCC(=O)O)c(O)c3ccccc23)cc1`, the IC50 was 5.63 µM.

Turning to `COc1cc(NCCCn2ccc(NC(=O)OCc3ccccc3)nc2=O)cc(OC)c1OC`, the IC50 was 17.6 µM.

Take `O=C(Nc1nnc(S(=O)(=O)N2CCCC2)s1)c1cccc([N+](=O)[O-])c1`: the IC50 was 4.17 µM.

With `COC1=C(OC)C(=O)C(Sc2ccc3ccccc3c2)=CC1=O`, the half-maximal inhibitory concentration (IC50) was 0.781 µM.

Turning to `CC1=C(C)CS(=O)N(S(=O)(=O)c2ccc(Cl)cc2)C1` (configuration not stated), the IC50 result was “inactive”.

Take `COc1cc(OC)c(C2CC(=O)N3CN(c4ccccc4)CSC3=C2C#N)cc1OC` (configuration not stated): the IC50 is 11.5 µM.

On to `CN1CCN(C(=S)c2ccc(Br)cc2)CC1`, for which the IC50 entry is “inactive”.

As to `CCC(C)(C)c1nnc(NC(=O)C2CCN(C(=O)c3ccco3)CC2)s1`, the IC50 entry was “inactive”.

`O=S(=O)(Nc1ccc(Cl)cc1)c1ccc(N2CCOCC2)c(NC(=S)NCCN2CCOCC2)c1`: the IC50 was 15.1 µM.

Consider `CC(C)Sc1nnc(NC(=O)c2ccc3c(c2)OCO3)s1`, for which the IC50 was 4.21 µM.

Consider `COc1cc(N)c2ncsc2c1`, for which the IC50 was 15.5 µM.

In the case of `[O-]/[N+](=C/c1cccnc1)c1ccc(Br)cc1`, the IC50 was 1.11 µM.

Regarding `Cc1c(/C=C/C(=O)c2ccc(Cl)s2)cnn1C`, the IC50 is 9.12 µM.

As to `COc1cc(N)c2ncccc2c1Cl`, the IC50 is 6.92 µM.

For the molecule `O=C(NC1=CC(=O)c2ccccc2C1=O)c1ccccc1`, the IC50 was 2.53 µM.

Consider `COC1=C(N)C(=O)c2nc(C)ccc2C1=O`, for which the IC50 is 6.3 µM.

`COc1ccc(CCn2c(NN=C3CCCC3)nc3c2c(=O)[nH]c(=O)n3C)cc1`: the IC50 is 9.56 µM.

For the molecule `CC1=CC(C)(C)Nc2ccc(OC(=O)CN3C(=O)CCC3=O)cc21`, the IC50 was 12 µM.

Take `O=S(=O)(Nc1cccc2cccnc12)c1ccccc1`: the IC50 was 7.08 µM.

Regarding `Cc1ccc(C(=O)Nc2nnc(S(=O)(=O)N3CCC(C)CC3)s2)cc1`, the IC50 entry was “inactive”.

`O=[N+]([O-])c1c(NCCO)cc(Sc2nc3ccccc3s2)c2nonc12`: the IC50 is 10.2 µM.

For the molecule `O=C(CNC(=O)c1cccs1)NCC(=O)OCC(=O)c1ccc([N+](=O)[O-])cc1`, the half-inhibitory concentration (IC50) was 16.7 µM.

On to `CC(C)c1cc2c(c(O)c1O)[C@@]13CCCC(C)(C)C1CC2OC3=O` (some centres not stated), for which the half-inhibitory concentration (IC50) is 4.95 µM.

With `COc1ccc(/C=C/c2nc3ccccc3n2C)cc1`, the IC50 is 8.04 µM.

With `COc1cc(NCc2ccccc2O)c2ncccc2c1`, the IC50 entry was “inactive”.

On to `Fc1cccc(Cl)c1CNc1ccc(N2CCCC2)cc1`, for which the IC50 was 4.06 µM.

Consider `Cc1ccc(NNS(=O)(=O)c2ccc(C)cc2)cc1`, for which the IC50 was 12.6 µM.

`COc1cccc(CNc2ccc3[nH]c(=O)[nH]c3c2)c1OCc1ccccc1Cl`: the IC50 entry was “inactive”.

Take `COc1cccc(-c2c(C(=O)N/N=C/c3ccc(C)o3)nnn2-c2nonc2N)c1`: the IC50 is 13.2 µM.

Regarding `COc1cc(N(C)C)ccc1C=c1c2ccccc2n2c1cc(-c1ccccc1)[n+]2C`, the half-inhibitory concentration (IC50) is 9.08 µM.

For `O=C1C=CC(=O)N1CCCCCCCCCCN1C(=O)C=CC1=O`, the IC50 was 13.5 µM.

For the molecule `O=C1C=C(NCCc2cc(Br)c(O)c(Br)c2)C(=O)c2ncccc21`, the IC50 is 1.35 µM.

For the molecule `O=C(Cn1sc2ccccc2c1=O)Nc1ccc(Cl)cc1`, the IC50 is 3.26 µM.

In the case of `CN1CCc2cccc3c2[C@@H]1Cc1ccc(O)c(O)c1-3`, the IC50 was 8.36 µM.

In the case of `Cc1[nH]c2ccccc2c1/C=N/Nc1nncn1N`, the IC50 was 5.61 µM.

With `C=CCSc1nnc(NC(=O)c2ccc(Cl)nc2)s1`, the IC50 was 4.05 µM.

With `Cn1c(=O)[nH]c(=O)c2c1nc(SCCN1CCCCC1)n2CCCc1ccccc1`, the IC50 was 14.2 µM.

For the molecule `COc1cc(N=Cc2c(CO)cnc(C)c2O)cc(OC)c1OC`, the IC50 was 19.6 µM.

For the molecule `CCCCCCCCn1sccc1=O`, the IC50 is 3.75 µM.

In the case of `O=C(CNC(=O)c1ccco1)OCC(=O)c1ccc([N+](=O)[O-])cc1`, the IC50 is 19.1 µM.

For the molecule `CCc1nnc(NC(=O)c2ccc(Cl)nc2)s1`, the IC50 is 15.5 µM.

For `CCCN1CCc2cccc3c2[C@H]1Cc1ccc(O)c(O)c1-3`, the 50% inhibitory concentration (IC50) was 15 µM.

For the molecule `COc1ccc2nc3cc(Cl)ccc3c(Nc3ccc(O)c(CN4CCN(C)CC4)c3)c2c1`, the IC50 entry was “inactive”.

Regarding `CCCNC(=O)Cn1sc2nc(C)cc(C)c2c1=O`, the IC50 is 3.13 µM.

Regarding `COC(=O)CCC(=O)Nc1sc(Cc2ccccc2)c(C)c1C(N)=O`, the IC50 result was “inactive”.

Turning to `O=C(Nc1sc2c(c1C(=O)O)CCC2)c1ccc(F)cc1`, the IC50 is 7.8 µM.

As for `O=c1c2ccc(F)cc2sn1-c1ccccc1`, the IC50 was 1.98 µM.

The record behind these values is PubChem BioAssay AID504765 (Sanford-Burnham Center for Chemical Genomics, 2011).
